Measured values reported in patent publication US20150105252A1, “SUBSTITUTED PYRAZOLES AS HERBICIDES” (E I DU PONT DE NEMOURS AND COMPANY, priority 2013, published 2015).

Tests used:
Assay in all cases: Test C postemergence
blackgrass = type: in vivo, Alopecurus myosuroides
In short: (§1)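 Scores of 0 (no effect) to 100 (complete control) were assigned by eye after 13–15 days, comparing treated pots with controls. Soil-applied (preemergence) treatments went onto seeds in loam and sand; foliar (postemergence) treatments onto 1- to 4-leaf plants in peat medium.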

ryegrass, Italian = type: in vivo, Lolium multiflorum
In short: as §1

wheat = type: in vivo, Triticum aestivum
In short: as §1

galium = type: in vivo, Galium aparine
In short: as §1

corn = type: in vivo, Zea mays
In short: as §1

crabgrass, large = type: in vivo, Digitaria sanguinalis
In short: as §1

foxtail, giant = type: in vivo, Setaria faberii
In short: as §1

johnsongrass = type: in vivo, Sorghum halepense
In short: as §1

lambsquarters = type: in vivo, Chenopodium album
In short: as §1

pigweed = type: in vivo, Amaranthus retroflexus
In short: as §1

ragweed = type: in vivo, Ambrosia elation
In short: as §1

soybean = type: in vivo, Glycine max
In short: as §1

barnyardgrass = type: in vivo, Echinochloa crus-galli
In short: as §1

oat, wild = type: in vivo, Avena fatua
In short: as §1

kochia = type: in vivo, Kochia scoparia
In short: as §1

velvetleaf = type: in vivo, Abutilon theophrasti
In short: as §1

chickweed = type: in vivo, Stellaria media
In short: as §1

[1] = Postemergence, 31 g ai/ha, visually evaluated after 13 to 15 days
[2] = postemergence, 62 g ai/ha, scale 0 to 100
[3] = postemergence, 250 g ai/ha, scale 0 to 100 (0 no effect, 100 complete control)
[4] = postemergence, 125 g ai/ha, scale 0 to 100, 0 no effect, 100 complete control

CCCNC(=O)c1cc(CC)n(Cc2ccnc(OC(F)F)c2)n1 [Compound 132]
Plant response rating (scale of 0 to 100 where 0 is no effect and 100 is complete control), Blackgrass (blackgrass; [1]): 5 | Blackgrass plant response rating (blackgrass; [2]): 5 | Plant response rating, Blackgrass (blackgrass; [3]): 25 | Plant response rating, Blackgrass (blackgrass; [4]): 10 | Plant response rating (scale of 0 to 100 where 0 is no effect and 100 is complete control), Ryegrass, Italian (ryegrass, Italian; [1]): 10 | Ryegrass, Italian plant response rating (ryegrass, Italian; [2]): 10 | Plant response rating, Ryegrass, Italian (ryegrass, Italian; [3]): 10 | Plant response rating, Ryegrass, Italian (ryegrass, Italian; [4]): 10 | Plant response rating (scale of 0 to 100 where 0 is no effect and 100 is complete control), Wheat (wheat; [1]): 5 | Wheat plant response rating (wheat; [2]): 10 | Plant response rating, Wheat (wheat; [3]): 15 | Plant response rating, Wheat (wheat; [4]): 10 | Plant response rating (scale of 0 to 100 where 0 is no effect and 100 is complete control), Galium (galium; [1]): 55 | Galium plant response rating (galium; [2]): 60 | Plant response rating, Galium (galium; [3]): 75 | Plant response rating, Galium (galium; [4]): 60 | Plant response rating (scale of 0 to 100 where 0 is no effect and 100 is complete control), Corn (corn; [1]): 5 | Corn plant response rating (corn; [2]): 5 | Plant response rating, Corn (corn; [3]): 20 | Plant response rating, Corn (corn; [4]): 75 | Plant response rating (scale of 0 to 100 where 0 is no effect and 100 is complete control), Crabgrass, Large (crabgrass, large; [1]): 5 | Crabgrass, Large plant response rating (crabgrass, large; [2]): 5 | Plant response rating, Crabgrass, Large (crabgrass, large; [3]): 55 | Plant response rating, Crabgrass, Large (crabgrass, large; [4]): 75 | Plant response rating (scale of 0 to 100 where 0 is no effect and 100 is complete control), Foxtail, Giant (foxtail, giant; [1]): 5 | Foxtail, Giant plant response rating (foxtail, giant; [2]): 10 | Plant response rating, Foxtail, Giant (foxtail, giant; [3]): 55 | Plant response rating, Foxtail, Giant (foxtail, giant; [4]): 35 | Plant response rating (scale of 0 to 100 where 0 is no effect and 100 is complete control), Johnsongrass (johnsongrass; [1]): 5 | Johnsongrass plant response rating (johnsongrass; [2]): 5 | Plant response rating, Johnsongrass (johnsongrass; [3]): 75 | Plant response rating, Johnsongrass (johnsongrass; [4]): 25 | Plant response rating (scale of 0 to 100 where 0 is no effect and 100 is complete control), Lambsquarters (lambsquarters; [1]): 25 | Lambsquarters plant response rating (lambsquarters; [2]): 55 | Plant response rating, Lambsquarters (lambsquarters; [3]): 85 | Plant response rating, Lambsquarters (lambsquarters; [4]): 75 | Plant response rating (scale of 0 to 100 where 0 is no effect and 100 is complete control), Pigweed (pigweed; [1]): 10 | Pigweed plant response rating (pigweed; [2]): 30 | Plant response rating, Pigweed (pigweed; [3]): 60 | Plant response rating, Pigweed (pigweed; [4]): 35 | Plant response rating (scale of 0 to 100 where 0 is no effect and 100 is complete control), Ragweed (ragweed; [1]): 10 | Ragweed plant response rating (ragweed; [2]): 10 | Plant response rating, Ragweed (ragweed; [3]): 90 | Plant response rating, Ragweed (ragweed; [4]): 55 | Plant response rating (scale of 0 to 100 where 0 is no effect and 100 is complete control), Soybean (soybean; [1]): 65 | Soybean plant response rating (soybean; [2]): 45 | Plant response rating, Soybean (soybean; [3]): 98 | Plant response rating, Soybean (soybean; [4]): 95 | Plant response rating (scale of 0 to 100 where 0 is no effect and 100 is complete control), Barnyardgrass (barnyardgrass; [1]): 5 | Barnyardgrass plant response rating (barnyardgrass; [2]): 5 | Plant response rating, Barnyardgrass (barnyardgrass; [3]): 50 | Plant response rating, Barnyardgrass (barnyardgrass; [4]): 10 | Plant response rating (scale of 0 to 100 where 0 is no effect and 100 is complete control), Oat, Wild (oat, wild; [1]): 10 | Oat, Wild plant response rating (oat, wild; [2]): 10 | Plant response rating, Oat, Wild (oat, wild; [3]): 25 | Plant response rating, Oat, Wild (oat, wild; [4]): 10 | Plant response rating (scale of 0 to 100 where 0 is no effect and 100 is complete control), Kochia (kochia; [1]): 70 | Kochia plant response rating (kochia; [2]): 80 | Plant response rating, Kochia (kochia; [3]): 90 | Plant response rating, Kochia (kochia; [4]): 80 | Plant response rating (scale of 0 to 100 where 0 is no effect and 100 is complete control), Velvetleaf (velvetleaf; [1]): 5 | Velvetleaf plant response rating (velvetleaf; [2]): 15 | Plant response rating, Velvetleaf (velvetleaf; [3]): 50 | Plant response rating, Velvetleaf (velvetleaf; [4]): 35 | Plant response rating (scale of 0 to 100 where 0 is no effect and 100 is complete control), Chickweed (chickweed; [1]): 75 | Chickweed plant response rating (chickweed; [2]): 70 | Plant response rating, Chickweed (chickweed; [3]): 85 | Plant response rating, Chickweed (chickweed; [4]): 75
